Common to all, as to assay type: cell-based
Assay [1] relates to p53 isoforms produced by alternative splicing (wild-type p53 MCF7 cells). Nature of the assay: p53 isoforms (α, β, γ) expression at mRNA level in MCF7 cells. The settings on record: 5 μM, 48 hours, RT-qPCR. How it is done:
(§1) Two breast cancer cell lines have been treated with 5 μM of drugs for 48 hours: wild-type p53 MCF7 cells and mutant p53 (R280K) MDA-MB-231-Luc-D3H2N provided by Caliper Life Science (parental Line source: American Type Culture collection). The MDA-MB-231-Luc-D3H2N cells were maintained in two different media during treatment: a DMEM supplemented with 10% foetal calf serum (FCS) and a FCS-free medium for 24 hours followed by 24 hours in a complete medium. The MC7 cells were maintained in a DMEM/FCS 10% medium.
(§2) Cells were harvested after 48 hours of treatment. Total RNAs (RNeasy Mini-Kit, Qiagen) and proteins (NuPage LDS 1×, Invitrogen) were extracted to analyse mRNA expression by nested RT-PCR or RT-qPCR and protein expression by Western Blot.
(§3) Expression of p53 isoforms produced by alternative splicing (α, β and γ) was analysed at mRNA levels by RT-qPCR using primers/probe specific of each C-terminal variants. The α-forms are the most abundant forms. In the low abundant forms, β-forms are more expressed than γ-forms.
(§4) A semi-quantitative RT-PCR method requiring high quality total RNA 28S/18S ratio (>1.5). After reverse-transcription of 500 ng of total RNA using random primers, actin cDNA was amplified by PCR to confirm reverse-transcription efficiency. 0.5 μg of total RNA from each tumour sample was reverse-transcribed (AMV RT, 45C, random primer) and cDNA quality confirmed by amplification of actin by PCR in 30 cycles. p53 isoform cDNA was amplified by 2 nested PCR of 30 cycles using primers specific of each isoforms as described by Bourdon et al. (Genes Dev., 2005, 19: 2122). Tumours were considered to express each p53 isoform after sequencing of the corresponding PCR fragment.
On the technique in general: In qPCR the cycle at which signal appears reflects the starting amount.

For assay [2], the system named is p53 (mutant p53 (R280K) MDA-MB-231-Luc-D3H2N cells). Nature of the assay: p53 protein expression by Western Blot (4 antibodies) in MDA-MB-231-Luc-D3H2N cells. The settings on record: 5 μM, 48 hours. How it is done:
(§5) The compounds of the invention have been tested according to the following pharmacological test and the three compounds have been more particularly tested: (40), (1) and (45), all diluted in DMSO. Their effects were thus compared to cells treated with DMSO. A positive control was used, TG003, a benzothiazole compound known to alter splicing through the inhibition of Clk/Sty family activity (Sigma, ref: T5575).
as §1, §2
(§6) p53 protein expression was determined using a panel of 4 different antibodies, namely DO1, SAPLI, CMI and DO12 as described in Bourdon et al. (Genes Dev., 2005, 19: 2122), to avoid problem of detection due to post-translational modification.
The amount of total proteins in each extract was quantified using BCA kit (promega). 8% SDS-PAGE gels were used. Equal amount (30 μg) of proteins was loaded on each lane. Proteins were then transferred electrophoretically on nitrocellulose membrane. Membranes were blocked in TBS/0.1% Tween 20 containing 3% milk for one hour and then incubated overnight with the primary antibodies diluted in TBS/0.1% Tween 20 containing 3% milk. After several washes in TBS/Tween, membranes were incubated with anti-rabbit Ig antibodies linked to HRP. Membranes were developed with ECL according to the manufacturer's instructions.
(§7) Scanned autoradiographs were quantified using AIDA/2D densitometry software.

The test system of assay [3] is p53 (wild-type p53 MCF7 cells). Briefly: p53 protein expression by Western Blot (4 antibodies) in MCF7 cells. The settings on record: 5 μM, 48 hours, vs DMSO. On the procedure:
as §5, §1
Cells were harvested after 48 hours of treatment. […]
as §6
The amount of total proteins in each extract was quantified using BCA kit (promega). […]
as §7

Assay [4] concerns p53 (wild-type p53 MCF7 cells). Briefly: p53 and Δ133p53 mRNA level by RT-qPCR in MCF7 cells. The settings on record: 5 μM, 48 hours, vs DMSO. How it is done: as §5, §1, §2
(§8) Analysis of p53 expression was assessed both at mRNA (full-length and truncated, Δ133p53 isoforms) and protein (full-length) levels by RT-qPCR and Western Blot, respectively.
as §4, with “The p53 isoform cDNA being too long to be specifically quantified by RT-qPCR, a semi-quantitative” for “A semi-quantitative”, “method was therefore used,” for “method”, “RT, 45 C,” for “RT, 45C,”, “described in” for “described by”

Assay [5] has as its system p53-target genes Hdm2, Bcl-2, p21 (mutant p53 MDA-MB-231-Luc-D3H2N cells). Briefly: p53 transcriptional activity: p53-target gene expression by Western-blot in MDA-MB-231-Luc-D3H2N cells. The settings on record: 5 μM, 48 hours. How it is done: as §5, §1, §2
(§9) Analysis of p53 transcriptional activity was assessed through analysis of p53-target gene expression by Western-blot. Four p53-target genes were studied: Hdm2, Bcl-2, p21 and Bax. Hdm2 is known to bind p53 and to negatively regulate p53 activity and stability. p21 is known to mediate p53 dependent cycle arrest. Bcl 2 is known to have an anti-proliferative effect and an apoptotic protective effect, while Bax is known to have a pro-apoptic effect. Bax was not detected in both MCF7 and MDA-MB-231-Luc-D3H2N cells, while p21 was not detected in MDA-MB-231-Luc-D3H2N cells maintained in FCS-free medium. The Western-blot was performed as above described using the antibodies described in Bourdon et al., Genes Dev., 2005, 19: 2122.

For assay [6], the system named is p53 (mutant p53 (R280K) MDA-MB-231-Luc-D3H2N cells). Briefly: p53 mRNA level by RT-qPCR in MDA-MB-231-Luc-D3H2N cells. The note with it: 5 μM, 48 hours; for p53 expression at mRNA levels (total isoforms, TA): decreased or not: mutant p53 MDA-MB-231-Luc-D3H2N cells in FCS-free medium; for p53 expression at mRNA levels (total isoforms, TA): mutant p53 MDA-MB-231-Luc-D3H2N cells in normal medium. On the procedure:
as §5, §1, §2, §8
as §4, with “The p53 isoform cDNA being too long to be specifically quantified by RT-qPCR, a semi-quantitative” for “A semi-quantitative”, “method was therefore used,” for “method”, “RT, 45 C,” for “RT, 45C,”, “described in” for “described by”

Assay [7] has as its system p53 isoforms produced by alternative splicing (mutant p53 MDA-MB-231-Luc-D3H2N cells). Briefly: p53 isoforms (α, β, γ) expression at mRNA level in MDA-MB-231-Luc-D3H2N cells. The settings on record: 5 μM, 48 hours. How it is done: as §1, §2, §3, §4
Assay [8] deals with p53-target genes Hdm2, Bcl-2, p21 (wild-type p53 MCF7 cells). Briefly: p53 transcriptional activity: p53-target gene expression by Western-blot in MCF7 cells. The note with it: 5 μM, 48 hours. How it is done: as §5, §1, §2, §9
Setting [9] is: mutant p53 MDA-MB-231-Luc-D3H2N cells in FCS-free medium.
The mark [10] stands for this setting: mutant p53 MDA-MB-231-Luc-D3H2N cells in normal medium.
[11] abbreviates: mutant p53 MDA-MB-231-Luc-D3H2N cells in FCS-free medium, RT-qPCR.
The mark [12] stands for this setting: mutant p53 MDA-MB-231-Luc-D3H2N cells in normal medium, RT-qPCR.

For `CCN(CC)CCNC(=O)c1ccccc1Nc1ccc(OC(F)(F)F)cc1` [Compound 45, N-(2-diethylamino-ethyl)-2-(4-trifluoromethoxy-phenylamino)-benzamide], in assay [1], the “expression of p53 β-forms (mRNA)” value is “tend to increase”, the “expression of p53 γ-forms (mRNA)” value is “tend to increase” and the “p53 α-form expression at mRNA levels” value is “did not change”. Besides, the “p53 protein levels (full-length)” value in assay [2] (setting [9]) is reported as “did not change”. For the same molecule, the “p53 protein levels (full-length)” value in assay [2] (setting [10]) is listed as “did not change”. The “p53 protein levels (full-length)” value in assay [3] is given as “decreased”. Further, the “total p53 expression (total isoforms, TA) at mRNA levels” value (“total p53 expression” for short) in assay [4] is on record as “did not change”. Besides, in assay [5] (setting [9]), the “expression of Bcl-2 (p53-target gene)” value is “slight decrease”. Moreover, the p53-target genes expression entry in assay [5] (setting [10]) is “slight decrease”. For the same molecule, in assay [6], the “p53 expression at mRNA levels (total isoforms, TA): decreased or not” value was “decreased” and the “p53 expression at mRNA levels (total isoforms, TA)” value was “decreased”. For the same molecule, in assay [7] (setting [11]), the “expression of p53 β-forms (mRNA)” value is listed as “tend to increase”, the “expression of p53 γ-forms (mRNA)” value is recorded as “tend to increase” and the “p53 α-form expression at mRNA levels” value was “did not change”. In addition, in assay [7] (setting [12]), the “expression of p53 β-forms (mRNA)” value was “tend to increase”, the “expression of p53 γ-forms (mRNA)” value was “tend to increase”, the “p53 α-form expression at mRNA levels” value is listed as “did not change” and the “significant increase of p53 β-forms (mRNA)” value is recorded as 3 fold. Also, the “significant increase of p53 γ-forms (mRNA)” value in assay [7] (setting [12]) worked out at 2 fold. Moreover, in assay [8], the “expression of Bcl-2 (p53-target gene)” value is recorded as “decreased expression” and the “expression of Hdm2 (p53-target gene)” value is on record as “decreased expression”.
For the molecule `CCN(CC)CCCNC(=O)c1cccc(Nc2cccc(/C=C/c3ccc(OC)cc3)c2)c1` [Compound 40], the “expression of p53 β-forms (mRNA)” value in assay [1] and in assay [7] (setting [12]) was “tend to increase” throughout. Further, the “expression of p53 γ-forms (mRNA)” value in assay [1] and in assay [7] (setting [12]) was “tend to increase” throughout. In addition, the “p53 α-form expression at mRNA levels” value in assay [1], in assay [7] (setting [11]) and in assay [7] (setting [12]) was “did not change” throughout. The figures for the “p53 protein levels (full-length)” value in assay [2] (setting [9]), in assay [2] (setting [10]) and in assay [3] were “did not change”, “did not change” and “decreased”, respectively. The “total p53 expression” value in assay [4] is on record as “did not change”. Moreover, the “Δ133p53 mRNA level” value in assay [4] was “increased”. Further, the p53-target genes expression entry in assay [5] (setting [9]) and in assay [5] (setting [10]) was “did not affect” throughout. For the same molecule, in assay [6], the “p53 expression at mRNA levels (total isoforms, TA)” value is given as “decreased”. For the same molecule, the “expression of Bcl-2 (p53-target gene)” value in assay [8] is “decreased expression”. For the same molecule, in assay [8], the “expression of Hdm2 (p53-target gene)” value was “decreased expression”.
As to `CC(C)CCNC(=O)c1cccc(Nc2cccc(/C=C/c3ccncc3)c2)c1` [Compound 1, (E)-N-(3-methylbutyl)-3-[3-(2-pyridin-4-ylvinyl)phenylamino]benzamide], in assay [1], the “expression of p53 β-forms (mRNA)” value was “tend to increase”, the “expression of p53 γ-forms (mRNA)” value is “tend to increase” and the “p53 α-form expression at mRNA levels” value is given as “did not change”. Also, the “p53 protein levels (full-length)” value in assay [2] (setting [9]) is given as “did not change”. In assay [2] (setting [10]), the “p53 protein levels (full-length)” value is “did not change”. In assay [4], the “total p53 expression” value is “did not change” and the “Δ133p53 mRNA level” value is given as “increased”. The “expression of Hdm2 (p53-target gene)” value in assay [5] (setting [9]) was “slight decrease”. Also, the p53-target genes expression result in assay [5] (setting [10]) is on record as “did not affect”. For the same molecule, in assay [6], the “p53 expression at mRNA levels (total isoforms, TA): decreased or not” value was “decreased” and the “p53 expression at mRNA levels (total isoforms, TA)” value is given as “significant decrease”. In assay [7] (setting [11]), the “expression of p53 γ-forms (mRNA)” value is reported as “no significant increase” and the “p53 α-form expression at mRNA levels” value is recorded as “did not change”. Besides, in assay [7] (setting [9]), the “p53 γ-forms expression by nested RT-PCR” value is “restoration”. In assay [7] (setting [12]), the “expression of p53 β-forms (mRNA)” value was “tend to increase”, the “expression of p53 γ-forms (mRNA)” value is listed as “tend to increase” and the “p53 α-form expression at mRNA levels” value is “did not change”. Further, in assay [7] (setting [10]), the “p53 γ-forms expression by nested RT-PCR” value is listed as “restoration”.

The values are drawn from US10538485B2, “Compounds for use as therapeutic agents affecting P53 expression and/or activity” (ABIVAX, priority 2011, dated 2020).
